pEC50: −log10 of the molar value. Structures can show the parent of a compound that is named as a salt.

For the test, the system named is progranulin (PGRN). Put plainly: progranulin induction cellular assay (PGRN assay), ELISA-based readout. The note with it: PGRN assay as described: mouse primary microglia, primary cortical neurons and BV-2 cell lines; secreted mouse PGRN in medium by ELISA; cell type for Table B not specified. As to the method: Cellular Assays: To measure the efficacy of compounds, a progranulin induction cellular assay in mouse primary microglia (pMG), primary cortical neurons, and BV-2 cell lines is used. BV-2 cells are split the day before plating into a 96 well plate format at approximately 80%. Cells should be plated the day before and allowed for 1 hour attachment period and for 16 hour incubation. Levels of progranulin secreted into the cell culture medium or retained in the cell lysate can be quantified using an ELISA-based readout and measurement of secreted mouse PGRN in the medium was assessed by the methodology published by Ghidoni et al. 2012. Standard ELISA kits to measure PGRN are available from vendors such as Adipogen, R&D, and Biovendor.
Table B below presents the results of a PGRN assay as described above.
(ELISA stands for enzyme-linked immunosorbent assay.)
`CN(C(=O)N1CCc2ccccc2[C@@H]1c1ccc(F)cc1)[C@H]1C[C@H](N)C1` [Compound 4055, (S)—N-((trans)-3-aminocyclobutyl)-1-(4-fluorophenyl)-N-methyl-3,4-dihydroisoquinoline-2(1H)-carboxamide]: the pEC50 (as a rule, the EC50 on a negative log10 scale, so that one unit is a factor of ten) was 6.80.
In turn, `N[C@H]1C[C@@H](COC(=O)N2CCc3ccccc3[C@@H]2c2ccc(F)cc2)C1` [Compound 4046, (Cis-3-aminocyclobutyl)methyl (S)-1-(4-fluorophenyl)-3,4-dihydroisoquinoline-2(1H)-carboxylate] showed a pEC50 of 6.04.
`N[C@H]1C[C@@H](OC(=O)N2CCc3ccccc3[C@@H]2c2ccc(F)cc2)C1` [Compound 4155, cis-3-aminocyclobutyl (S)-1-(4-fluorophenyl)-3,4-dihydroisoquinoline-2(1H)-carboxylate]: the negative-log EC50 (pEC50) was 6.88.
`N[C@H]1C[C@@H](CNC(=O)N2CCc3ccccc3[C@@H]2c2ccc(F)cc2)C1` [Compound 4028, Cis-(S)—N-((3-aminocyclobutyl)methyl)-1-(4-fluorophenyl)-3,4-dihydroisoquinoline-2(1H)-carboxamide] gave a pEC50 of 5.63.
Next, `CN(C)[C@H]1C[C@@H](NC(=O)N2CCc3ccccc3[C@@H]2c2ccc(F)cc2)C1` [Compound 4069]: 6.17; `NC[C@@H]1CC[C@@H]1OC(=O)N1CCc2ccccc2[C@@H]1c1ccc(F)cc1` [Compound 4124]: 6.46; `O=C(O[C@H]1C[C@H](NCCO)C1)N1CCc2ccccc2[C@@H]1c1ccc(F)cc1` [Compound 4146, trans-3-((2-hydroxyethyl)amino)cyclobutyl (S)-1-(4-fluorophenyl)-3,4-dihydroisoquinoline-2(1H)-carboxylate]: 7.05.
Next, `N[C@H]1C[C@H](NC(=O)N2CCc3ccccc3[C@@H]2c2ccc(F)cc2)C1` [Compound 4035, (S)—N-(trans-3-aminocyclobutyl)-1-(4-fluorophenyl)-3,4-dihydroisoquinoline-2(1H)-carboxamide hydrochloride]: 6.31; `N[C@H]1C[C@H](C(=O)N2CCc3ccccc3[C@@H]2c2ccc(F)cc2)C1` [Compound 4147, (trans-3-aminocyclobutyl)((S)-1-(4-fluorophenyl)-3,4-dihydroisoquinolin-2(1H)-yl)methanone]: 7.00.
`CCN[C@H]1C[C@@H](OC(=O)N2CCc3ccccc3[C@@H]2c2ccc(F)cc2)C1` [Compound 4129] had a pEC50 of 6.50.
For the compound `C[C@]1(NC(=O)N2CCc3ccccc3[C@@H]2c2ccc(F)cc2)C[C@@H](N)C1` [Compound 4054, (S)—N-((cis)-3-amino-1-methylcyclobutyl)-1-(4-fluorophenyl)-3,4-dihydroisoquinoline-2(1H)-carboxamide], the negative logarithm of the EC50 (pEC50) is 6.92.
Next, `NC[C@H]1C[C@@H](NC(=O)N2CCc3ccccc3[C@@H]2c2ccc(F)cc2)C1` [Compound 4032, (S)—N-(cis-3-(aminomethyl)cyclobutyl)-1-(4-fluorophenyl)-3,4-dihydroisoquinoline-2(1H)-carboxamide]: below 5.00.
Under `NC12CC(OC(=O)N3CCc4ccccc4[C@@H]3c3ccc(F)cc3)(C1)C2` [Compound 4001, 3-Aminobicyclo[1.1.1]pentan-1-yl (S)-1-(4-fluorophenyl)-3,4-dihydroisoquinoline-2(1H)-carboxylate] stands 6.36; under `N[C@H]1CC[C@@H](C(=O)N2CCc3ccccc3[C@@H]2c2ccc(F)cc2)CC1` [Compound 4143, cis-(S)-(4-aminocyclohexyl)(1-(4-fluorophenyl)-3,4-dihydroisoquinolin-2(1H)-yl)methanone], 7.08; under `N[C@H]1C[C@H](OC(=O)N2CCc3ccccc3[C@@H]2c2ccc(F)cc2)C1` [Compound 4036, Trans-3-aminocyclobutyl (S)-1-(4-fluorophenyl)-3,4-dihydroisoquinoline-2(1H)-carboxylate hydrochloride], 5.95.
The compound `O=C(NC12CC(NS(=O)(=O)C(F)(F)F)(C1)C2)N1CCc2ccccc2[C@@H]1c1ccc(F)cc1` [Compound 4020, (S)-1-(4-fluorophenyl)-N-(3-((trifluoromethyl)sulfonamido)bicyclo[1.1.1]pentan-1-yl)-3,4-dihydroisoquinoline-2(1H)-carboxamide] gave a negative logarithm of the EC50 (pEC50) of 5.48.
Under `NC[C@H]1C[C@@H](C(=O)N2CCc3ccccc3[C@@H]2c2ccc(F)cc2)C1` [Compound 4150, (cis-3-(aminomethyl)cyclobutyl)((S)-1-(4-fluorophenyl)-3,4-dihydroisoquinolin-2(1H)-yl)methanone] stands 7.10; under `NC1CCC1COC(=O)N1CCc2ccccc2[C@@H]1c1ccc(F)cc1` (stereo in doubt) [Compound 4062, ((1R,2R)-2-aminocyclobutyl)methyl (S)-1-(4-fluorophenyl)-3,4-dihydroisoquinoline-2(1H)-carboxylate], 6.48; under `N[C@]1(CO)C[C@@H](C(=O)N2CCc3ccccc3[C@@H]2c2ccc(F)cc2)C1` [Compound 4152, (trans-3-amino-3-(hydroxymethyl)cyclobutyl)((S)-1-(4-fluorophenyl)-3,4-dihydroisoquinolin-2(1H)-yl)methanone], 6.61.
Next, `CC(=O)NC12CC(OC(=O)N3CCc4ccccc4[C@@H]3c3ccc(F)cc3)(C1)C2` [Compound 4015, 3-Acetamidobicyclo[1.1.1]pentan-1-yl (S)-1-(4-fluorophenyl)-3,4-dihydroisoquinoline-2(1H)-carboxylate]: below 5.00; `O=C(NC12CC(NC(=O)C(F)(F)F)(C1)C2)N1CCc2ccccc2[C@@H]1c1ccc(F)cc1` [Compound 4019]: 5.63; `CNC12CC(CC(=O)N3CCc4ccccc4C3c3ccc(F)cc3)(C1)C2` [Compound 4057, (S)-1-(1-(4-fluorophenyl)-3,4-dihydroisoquinolin-2(1H)-yl)-2-(3-(methylamino)bicyclo[1.1.1]pentan-1-yl)ethan-1-one]: 5.76.
Next, `CN(C)[C@H]1C[C@H](CC(=O)N2CCc3ccccc3[C@@H]2c2ccc(F)cc2)C1` [Compound 4125]: 6.55; `CN[C@H]1C[C@@H](NC(=O)N2CCc3ccccc3[C@@H]2c2ccc(F)cc2)C1` [Compound 4066]: 6.21.
Compound `O=C(NC12CC(N3CCS(=O)(=O)CC3)(C1)C2)N1CCc2ccccc2[C@@H]1c1ccc(F)cc1` [Compound 4021, (S)—N-(3-(1,1-dioxidothiomorpholino)bicyclo[1.1.1]pentan-1-yl)-1-(4-fluorophenyl)-3,4-dihydroisoquinoline-2(1H)-carboxamide] gave a negative logarithm of the EC50 (pEC50) below 5.00.
Under `N[C@H]1C[C@H](COC(=O)N2CCc3ccccc3[C@@H]2c2ccc(F)cc2)C1` [Compound 4047, (Trans-3-aminocyclobutyl)methyl (S)-1-(4-fluorophenyl)-3,4-dihydroisoquinoline-2(1H)-carboxylate] stands 5.79; under `CN[C@H]1C[C@H](NC(=O)N2CCc3ccccc3[C@@H]2c2ccc(F)cc2)C1` [Compound 4043, (S)-1-(4-fluorophenyl)-N-(trans-3-(methylamino)cyclobutyl)-3,4-dihydroisoquinoline-2(1H)-carboxamide hydrochloride], 6.05.

These data come from patent publication US20230115534A1 (ARKUDA THERAPEUTICS, priority 2019, published 2023).
